Like-named read-outs stand apart in the source and are kept apart here.
Columns and labels:
Experiment in all cases: Test C pre-/postemergence greenhouse test, plant response rating 0-100
Type in all cases: in vivo
[1] = system: giant foxtail (Setaria faberii); settings: Setaria faberi; for pest or weed control at 62 g/ha: 62 g ai/ha; for pest or weed control at 125 g/ha: 125 g ai/ha; for pest or weed control at 250 g/ha: 250 g ai/ha; for pest or weed control at 500 g/ha: 500 g ai/ha
From the text: (§1) Seeds of plant species selected from blackgrass (Alopecurus myosuroides), Italian ryegrass (Lolium multiflorum), winter wheat (Triticum aestivum), galium (catchweed bedstraw, Galium aparine), corn (Zea mays), large (Lg) crabgrass (Digitaria sanguinalis), giant foxtail (Setaria faberii), johnsongrass (Sorghum halepense), lambsquarters (Chenopodium album), morningglory (Ipomoea coccinea), yellow nutsedge (Cyperus esculentus), pigweed (Amaranthus retroflexus), ragweed (common ragweed, Ambrosia elatior), soybean (Glycine max), barnyardgrass (Echinochloa crus-galli), oilseed rape (Brassica napus), waterhemp (common waterhemp, Amaranthus rudis), and velvetleaf (Abutilon theophrasti) were planted into a blend of loam soil and sand and treated preemergence with test chemicals formulated in a non-phytotoxic solvent mixture which included a surfactant.
(§2) At the same time, plants selected from these crop and weed species and also winter barley (Hordeum vulgare), bermudagrass (Cynodon dactylon), downy bromegrass (Bromus tectorum), canarygrass (Phalaris minor), cocklebur (common cocklebur, Xanthium strumarium), woolly cupgrass (Eriochloa villosa), deadnettle (henbit deadnettle, Lamium amplexicaule), green foxtail (Setaria viridis), goosegrass (Eleusine indica), surinam grass (Brachiaria decumbens), windgrass (Apera spica-venti), chickweed (common chickweed, Stellaria media), kochia (Kochia scoparia), and wild oat (Avena fatua), were planted in pots containing Redi-Earth® planting medium (Scotts Company, 14111 Scottslawn Road, Marysville, Ohio 43041) comprising spaghnum peat moss, vermiculite, wetting agent and starter nutrients and treated with postemergence applications of test chemicals formulated in the same manner. Plants ranged in height from 2 to 18 cm (1- to 4-leaf stage) for postemergence treatments. Treated plants and controls were maintained in a greenhouse for 13 to 15 days, after which time all species were compared to controls and visually evaluated. Plant response ratings, summarized in Table C, are based on a scale of 0 to 100 where 0 is no effect and 100 is complete control. A dash (-) response means no test result.

[2] = system: pigweed (Amaranthus retroflexus); settings: Amaranthus retroflexus; for pest or weed control at 62 g/ha: 62 g ai/ha; for pest or weed control at 125 g/ha: 125 g ai/ha; for pest or weed control at 250 g/ha: 250 g ai/ha; for pest or weed control at 500 g/ha: 500 g ai/ha
From the text: as §1, §2

[3] = system: galium (catchweed bedstraw, Galium aparine); settings: Galium; for pest or weed control at 62 g/ha: 62 g ai/ha; for pest or weed control at 125 g/ha: 125 g ai/ha; for pest or weed control at 250 g/ha: 250 g ai/ha; for pest or weed control at 500 g/ha: 500 g ai/ha
From the text: as §1, §2

[4] = system: Italian ryegrass (Lolium multiflorum); settings: Lolium multiflorum; for pest or weed control at 62 g/ha: 62 g ai/ha; for pest or weed control at 125 g/ha: 125 g ai/ha; for pest or weed control at 250 g/ha: 250 g ai/ha; for pest or weed control at 500 g/ha: 500 g ai/ha
From the text: as §1, §2

[5] = system: corn (Zea mays); settings: Zea mays; for Corn plant response rating (crop injury, 0 = no effect, 100 = complete kill) at 250 g/ha: 250 g ai/ha; for Corn plant response rating (crop injury, 0 = no effect, 100 = complete kill) at 500 g/ha: 500 g ai/ha
From the text: as §1, §2

[6] = system: large (Lg) crabgrass (Digitaria sanguinalis); settings: Digitaria sanguinalis; for pest or weed control at 62 g/ha: 62 g ai/ha; for pest or weed control at 125 g/ha: 125 g ai/ha; for pest or weed control at 250 g/ha: 250 g ai/ha; for pest or weed control at 500 g/ha: 500 g ai/ha
From the text: as §1, §2

[7] = system: yellow nutsedge (Cyperus esculentus); settings: Cyperus, post-emergence, Postemergence, read-out: Plant response rating (0 to 100), Nutsedge, Yellow
From the text: as §1, §2

[8] = post-emergence, Postemergence, read-out: Plant response rating (0 to 100), Foxtail, Giant
[9] = post-emergence, Postemergence, scale 0 to 100
[10] = pre-emergence, Preemergence, read-out: Plant response rating, Foxtail, Giant
[11] = post-emergence, Postemergence, read-out: Plant response rating (0 to 100), Pigweed
[12] = pre-emergence, Preemergence, read-out: Plant response rating, Pigweed
[13] = post-emergence, Postemergence, read-out: Plant response rating (0 to 100), Galium
[14] = pre-emergence, Preemergence, read-out: Plant response rating, Galium
[15] = post-emergence, Postemergence, read-out: Plant response rating (0 to 100), Ryegrass, Italian
[16] = pre-emergence, Preemergence, read-out: Plant response rating, Ryegrass, Italian
[17] = post-emergence, Postemergence, read-out: Plant response rating (0 to 100), Crabgrass, Large
[18] = pre-emergence, Preemergence, read-out: Plant response rating, Crabgrass, Large

CCOC(OCC)(c1ccccc1)c1c[nH]nc1-c1cc(Cl)cc(Cl)c1 [Compound 14, 3-(3,5-dichlorophenyl)-4-(diethoxyphenylmethyl)-1H-pyrazole]
5%: pest or weed control at 500 g/ha [4, 9] | Corn plant response rating (crop injury, 0 = no effect, 100 = complete kill) at 250 g/ha [5, 9] | Corn plant response rating (crop injury, 0 = no effect, 100 = complete kill) at 500 g/ha [5, 9]
80%: pest or weed control at 250 g/ha ([3]; pre-emergence, Preemergence)
0%: pest or weed control at 62 g/ha [1, 8] | pest or weed control at 125 g/ha [1, 8] | pest or weed control at 250 g/ha [1, 9] | pest or weed control at 500 g/ha [1, 9] | pest or weed control at 62 g/ha [1, 10] | pest or weed control at 125 g/ha [1, 10] | pest or weed control at 250 g/ha ([1]; pre-emergence, Preemergence) | pest or weed control at 500 g/ha ([1]; pre-emergence, Preemergence) | pest or weed control at 62 g/ha [3, 13] | pest or weed control at 62 g/ha [3, 14] | pest or weed control at 500 g/ha ([3]; pre-emergence, Preemergence) | pest or weed control at 62 g/ha [4, 15] | pest or weed control at 125 g/ha [4, 15] | pest or weed control at 250 g/ha [4, 9] | pest or weed control at 62 g/ha [4, 16] | pest or weed control at 125 g/ha [4, 16] | pest or weed control at 250 g/ha ([4]; pre-emergence, Preemergence) | pest or weed control at 500 g/ha ([4]; pre-emergence, Preemergence) | plant injury at 62 g/ha ([5]; post-emergence, Postemergence, 62 g ai/ha) | plant injury at 125 g/ha ([5]; post-emergence, Postemergence, 125 g ai/ha) | Corn plant response rating (crop injury, 0 = no effect, 100 = complete kill) at 62 g/ha ([5]; pre-emergence, Preemergence, 62 g ai/ha) | Corn plant response rating (crop injury, 0 = no effect, 100 = complete kill) at 125 g/ha ([5]; pre-emergence, Preemergence, 125 g ai/ha) | Corn plant response rating (crop injury, 0 = no effect, 100 = complete kill) at 250 g/ha ([5]; pre-emergence, Preemergence) | Corn plant response rating (crop injury, 0 = no effect, 100 = complete kill) at 500 g/ha ([5]; pre-emergence, Preemergence) | pest or weed control at 62 g/ha [6, 17] | pest or weed control at 125 g/ha [6, 17] | pest or weed control at 250 g/ha [6, 9] | pest or weed control at 500 g/ha [6, 9] | pest or weed control at 62 g/ha [6, 18] | pest or weed control at 125 g/ha [6, 18] | pest or weed control at 250 g/ha ([6]; pre-emergence, Preemergence) | pest or weed control at 500 g/ha ([6]; pre-emergence, Preemergence) | pest or weed control at 62 g/ha ([7]; 62 g ai/ha) | pest or weed control at 125 g/ha ([7]; 125 g ai/ha)
98%: pest or weed control at 125 g/ha [2, 11] | pest or weed control at 62 g/ha [2, 12]
45%: pest or weed control at 500 g/ha [3, 9]
50%: pest or weed control at 250 g/ha [3, 9]
85%: pest or weed control at 62 g/ha [2, 11]
30%: pest or weed control at 125 g/ha [3, 13]
100%: pest or weed control at 250 g/ha [2, 9] | pest or weed control at 500 g/ha [2, 9] | pest or weed control at 125 g/ha [2, 12] | pest or weed control at 250 g/ha ([2]; pre-emergence, Preemergence) | pest or weed control at 500 g/ha ([2]; pre-emergence, Preemergence)
60%: pest or weed control at 125 g/ha [3, 14]
